Experimental data as given in publication PMC7000209, “Novel small molecule modulators of quorum sensing in avian pathogenic Escherichia coli (APEC)” (Virulence, 2018).

How the values were obtained:
APEC O1 in THP-1 cells = test: Intracellular survival assay, APEC O1 in THP-1 cells; type: cell-based, avian pathogenic E. coli (APEC) O1; conditions: MOI 100, 100 µM, 6 h, vs DMSO treated control
Description: (§1) The effect of the selected AI-2 inhibitors on the survival of APEC in macrophage cells was tested as described before. Briefly, HD-11 cells was grown as described above and infected with 1 × 10^7 CFU (MOI = 100) of mid-log phase APEC strains (O78, O1 and O2) at 37 °C for 1 h. Cells were washed with PBS and treated with gentamicin (150 μg/mL) for 1 h to kill the extracellular bacteria. The cells were then washed and incubated with 100 µM of each compound in media containing 10 μg/mL of gentamicin at 37 °C for 6 h. Following treatment, cells were washed, lysed with 0.1% Triton X-100 for 5 min, ten-fold serially diluted in PBS and plated on LB agar plates to determine CFUs. Cells treated with chloramphenicol (40 μg/mL) and 1 μL of 100% DMSO were used as controls. The experiment was conducted two times with four replicates in each experiment. Intracellular survival was expressed as the log change of APEC CFUs in the AI-2 inhibitors treated cells.
(§2) Similarly, the intracellular survival assay was also performed in THP-1 cells (ATCC® TIB-202™) as described above. The THP-1 cells were grown in RPMI 1640 medium (Gibco) supplemented with 10% FBS and 2 mM glutamine. In order to differentiate the THP-1 monocyte to macrophage, 100 nM phorbol myristate acetate (PMA; Sigma-Aldrich) was added to the media. The cells (1.4 × 10^5 cells/well) were grown in a 96-well plate in a 5% CO2 incubator at 37 °C for 48 h, infected with APEC (MOI = 100), treated with each compound and the intracellular bacteria was determined as above.

[1] = test system: AI-2 activity of APEC O78; test: AI-2 bioluminescence indicator assay (V. harveyi BB170), APEC O78 supernatant; type: cell-based, avian pathogenic E. coli (APEC) O78; conditions: Escherichia coli, read-out: AI-2-associated bioluminescence inhibition
APEC O2 in THP-1 cells = test: Intracellular survival assay, APEC O2 in THP-1 cells; type: cell-based, avian pathogenic E. coli (APEC) O2; conditions: MOI 100, 100 µM, 6 h; for reduction of intracellular survival of APEC O2: vs DMSO treated control
Description: as §1, §2

G. mellonella larvae = test: Toxicity of SMs in wax moth larvae; type: in vivo, Galleria mellonella; conditions: uninfected larvae, 12.5 µg/larva (50 mg/kg), 72 h
Description: To confirm that the death of the larvae was not due to the compounds, intrinsic toxicity the AI-2 inhibitors were assessed in a separate experiment. G. mellonella larvae (fifth instar; n = 10) were inoculated with 8.5 µL of SMs (50 mg/kg body weight; 12.5 µg/ larva) into the hemocoel via the last left proleg. Post inoculation, larvae were placed inside sterile petri dishes and incubated in the dark at 37 °C for 72 h and larval survival was monitored every 24 h. Two independent experiments were conducted

chicken RBCs = conditions: 1 h, 100 µM
Description: (§3) The hemolytic activity of the selected AI-2 inhibitors was determined as described before [56]. Briefly, 200 µL of the 10% RBCs (LAMPIRE Biological Laboratories) suspension in PBS was incubated with 100 μM of each compound for 1 h in a 96-well plate. The plate was then centrifuged at 5000 × g for 5 min, placed on ice for 5 min and the absorbance of the supernatant was measured at 540 nm. PBS, 1% DMSO, and 0.1% Triton X-100 were used as controls. Two independent experiments were conducted in triplicate wells in each experiment.

sheep RBCs = conditions: 1 h, 100 µM
Description: as §3

APEC O1 in HD-11 cells = test: Intracellular survival assay, APEC O1 in HD-11 cells; type: cell-based, avian pathogenic E. coli (APEC) O1; conditions: MOI 100, 100 µM, 6 h; for reduction of intracellular survival of APEC O1: vs DMSO treated control
Description: as §1

APEC O78 in THP-1 cells = test: Intracellular survival assay, APEC O78 in THP-1 cells; type: cell-based, avian pathogenic E. coli (APEC) O78; conditions: MOI 100, 100 µM, 6 h, vs DMSO treated control
Description: as §1
as §2, with “In order to differentiate the THP-1 monocyte to macrophage, 100 nM phorbol myristate acetate (PMA; Sigma-Aldrich) was added to the media.” left out

HD-11 cells = test: Lactate dehydrogenase (LDH) cytotoxicity assay, HD-11; type: cell-based, chicken; conditions: 100 µM, 24 h
Description: The selected 10 AI-2 inhibitors were evaluated for their toxicity to Caco-2 (ATCC® HTB-37™) using LDH assay. Briefly, Caco-2 cells (1.4 × 10^5 cells/well) were grown in a 96-well plate in minimal essential medium (MEM) supplemented with 20% fetal bovine serum (FBS; Gibco), 1% non-essential amino acid (NEAA, Invitrogen Life Technologies) and 1mM sodium pyruvate, at 37 °C in a humidified 5% CO2 incubator for 48 h until a complete monolayer was formed. For LDH assay, cells were washed twice with media containing no FBS/no antibiotics and incubated with 150 µL of fresh media containing 100 μM of each compound at 37 °C for 24 h in a humidified 5% CO2 incubator. Fifty microliters of supernatant was analyzed using LDH Cytotoxicity Assay Kit (Thermo Scientific).
Toxicity was also determined on HD-11 cells (CVCL-4685). The HD-11 cells (1.4 × 10^5 cells/well) were grown in Iscove’s modified Dulbecco’s medium (IMEM; Gibco) supplemented with 2 mM glutamine and 10% FBS at 37 °C in a humidified 5% CO2 for 48 h until a monolayer was completely formed. LDH assay was conducted as described above.

Q: For Fc1ccc(CN2CCCN(Cc3nc(-c4ccc(C(F)(F)F)cc4)no3)CC2)cc1 [C9, 1-(4-fluorobenzyl)-4-({3-[4-(trifluoromethyl)phenyl]-1,2,4-oxadiazol-5-yl}methyl)-1,4-diazepane], which “reduction of intracellular survival of APEC O1” value (“reduction … of APEC O1” below) (APEC O1 in THP-1 cells) is on record?
A: up to 0.9 log

Q: What about the inhibition at 50 µM [1] of the same molecule?
A: 25%

Q: And the “clearance of intracellular APEC O2” value (APEC O2 in THP-1 cells)?
A: 100%

Q: What about the “reduction of intracellular survival of APEC O2” value (APEC O2 in THP-1 cells) of the same molecule?
A: 4 logs

Q: How did the “survival of larvae treated with compound (toxicity)” value (G. mellonella larvae) turn out when O=[N+]([O-])c1cccc(S(=O)(=O)Nc2ccc(Br)cc2)c1 [C6, N-(4-bromophenyl)-3-nit robenzenesulfonamide] was run?
A: 100%

Q: For COCCN1CCC(CN(Cc2ccncc2)Cc2ccccc2Cl)CC1 [C1, (2-chlorobenzyl){[1-(2-methoxyethyl)-4-piperidinyl]methyl}(4-pyridinylmethyl)amine], which “reduction … of APEC O1” value (APEC O1 in THP-1 cells) is on record?
A: up to 0.9 log

Q: And the “survival of larvae treated with compound (toxicity)” value (G. mellonella larvae)?
A: 100%

Q: What does the source list for NC(=O)c1ccccc1Nc1cccc(C(F)(F)F)c1 [C3, 2-{[3-(trifluoromethyl)phenyl]amino}benzamide]?
A: reduction of intracellular survival of APEC O1 (APEC O1 in THP-1 cells): up to 0.9 log; hemolytic activity (chicken RBCs): 6.4%; hemolytic activity (sheep RBCs): 20.6%; clearance of intracellular APEC O1 (APEC O1 in HD-11 cells): 100%; reduction of intracellular survival of APEC O1 (APEC O1 in HD-11 cells): ~ 4 logs

Q: With OCCC1CN(C2CCN(c3ccccc3)CC2)CCN1CCCc1ccccc1 (stereo not drawn) [C10, 2-[4-(1-phenyl-4-piperidinyl)-1-(3-phenylpropyl)-2-piperazinyl]ethanol] as the molecule, how does the “reduction … of APEC O1” value (APEC O1 in THP-1 cells) read?
A: up to 0.9 log

Q: What about the inhibition at 50 µM [1] of the same molecule?
A: 25%

Q: And the “reduction … of APEC O1” value (APEC O1 in HD-11 cells)?
A: up to 0.9 logs

Q: What about the “clearance of intracellular APEC O2” value (APEC O2 in THP-1 cells) of the same molecule?
A: 100%

Q: And the “reduction of intracellular survival of APEC O2” value (APEC O2 in THP-1 cells)?
A: 4 logs

Q: And the “reduction of intracellular survival of APEC O78” value (APEC O78 in THP-1 cells)?
A: up to 0.7 logs

Q: Which inhibition at 50 µM [1] does the source give for O=C(CCN1CCN(c2ccccc2F)CC1)Nc1ccc(Br)cc1 [C7, N-(4-bromophenyl)-3-[4-(2-fluorophenyl)-1-piperazinyl]propanamide] here?
A: 25%

Q: How did the “cytotoxicity (LDH release)” value (HD-11 cells) turn out when CCc1ccccc1Nc1nc(-c2c(C)nc3ccccn23)cs1 [C8, N-(2-ethylphenyl)-4-(2-methylimidazo[1,2-a]pyridin-3-yl)-1,3-thiazol-2-amine] was run?
A: less than 10%

Q: With Cc1ccc(CN2CCN(CCCc3ccccc3)CC2)cc1 [C5, 1-(4-methylbenzyl)-4-(3-phenylpropyl)piperazine] as the molecule, how does the “cytotoxicity (LDH release)” value (HD-11 cells) read?
A: less than 10%
